In ChEMBL document CHEMBL2429792, “2D QSAR of heteroaryl-substituted propanolamines as antihypertensive agents” (2013):

Species: Rattus norvegicus
Test: Antihypertensive activity in rat assessed as inhibition of isoproterenol-induced tachycardia
Assay type: functional

`N#Cc1ccccc1OCC(O)CNCCNC(=O)Cc1c[nH]c2ccccc12` (stereo unspecified) gave a log1/activity of 6.44.

In the case of `CNC(=O)Nc1ccc(C(=O)NCCNCC(O)COc2cccc3c2OCCO3)cc1` (stereo unspecified), the log1/activity was 7.34.

For `O=C(NCCNCC(O)COc1ccccc1)c1ccncc1` (stereo unspecified), the log1/activity was 5.79.

`O=C(NCCNCC(O)COc1cccc2ccccc12)c1ccco1` (stereo unspecified) gave a log1/activity of 4.73.

`N#Cc1ccccc1OCC(O)CNCCNC(=O)c1ccco1` (stereo unspecified) was tested, and the log1/activity was 4.73.

In the case of `Cc1ccccc1OCC(O)CNCCNC(=O)c1ccco1` (stereo unspecified), the log1/activity was 5.38.

`COc1ccc2c(O)cc(CC(=O)NCCNCC(O)COc3ccccc3C#N)nc2c1` (stereo unspecified) gave a log1/activity of 6.65.

Compound `CC(C)C(=O)NCCNCC(O)COc1cccc2[nH]ccc12` (stereo unspecified) has a log1/activity of 7.2.

Compound `N#Cc1ccccc1OCC(O)CNCCNC(=O)Cc1cccs1` (stereo unspecified) has a log1/activity of 6.95.

Compound `CC(C)C(=O)NCCNCC(O)COc1cccc2sccc12` (stereo unspecified) has a log1/activity of 5.82.

In the case of `O=C(NCCNCC(O)COc1cccc2c1OCCO2)c1ccc(O)cc1` (stereo unspecified), the log1/activity was 6.41.

In the case of `O=C(Cc1ccccc1)NCCNCC(O)COc1cccc2c1OCCO2` (stereo unspecified), the log1/activity was 5.41.

`Cc1cc(C(=O)NCCNCC(O)COc2ccccc2C#N)[nH]n1` (stereo unspecified) was tested, and the log1/activity was 4.78.

Compound `O=C(NCCNCC(O)COc1cccc2occc12)Nc1ccccc1` (stereo unspecified) has a log1/activity of 5.56.

`CC(=O)c1ccc(C(=O)NCCNCC(O)COc2cccc3c2OCCO3)cc1` (stereo unspecified) showed a log1/activity of 6.31.

In the case of `O=C(NCCNCC(O)COc1ccccc1)c1cc2ccccc2[nH]1` (stereo unspecified), the log1/activity was 4.54.

`N#Cc1ccccc1OCC(O)CNCCNC(=O)c1ccc2ccccc2n1` (stereo unspecified) gave a log1/activity of 4.59.

In the case of `N#Cc1ccccc1OCC(O)CNCCNC(=O)Cc1csc(-c2ccc(Cl)cc2)n1` (stereo unspecified), the log1/activity was 4.89.

With `O=C(NCCNCC(O)COc1cccc2c1OCCO2)Nc1ccccc1` (stereo unspecified) the log1/activity was 4.58.

Compound `O=C(NCCNCC(O)COc1ccccc1)c1ccco1` (stereo unspecified) has a log1/activity of 5.48.

`COc1cc(CC(=O)NCCNCC(O)COc2ccccc2C#N)nc(-c2ccc(Cl)cc2)n1` (stereo unspecified) showed a log1/activity of 4.69.

`CC(C)C(=O)NCCNCC(O)COc1nccs1` (stereo unspecified) was tested, and the log1/activity was 5.91.

`N#Cc1ccccc1OCC(O)CNCCNC(=O)c1cc2ccccc2[nH]1` (stereo unspecified) gave a log1/activity of 4.57.

`Nc1ccc(C(=O)NCCNCC(O)COc2cccc3c2OCCO3)cc1` (stereo unspecified) showed a log1/activity of 5.5.

For `C=CCOc1ccccc1OCC(O)CNCCNC(=O)c1ccco1` (stereo unspecified), the log1/activity was 5.07.

In the case of `O=C(NCCNCC(O)COc1cccc2sccc12)Nc1ccccc1` (stereo unspecified), the log1/activity was 4.88.

With `O=C(NCCNCC(O)COc1cccc2c1OCCC2=O)Nc1ccccc1` (stereo unspecified) the log1/activity was 4.83.

Compound `O=C(NCCNCC(O)COc1ccccc1I)c1ccco1` (stereo unspecified) has a log1/activity of 5.27.

`CC(C)C(=O)NCCNCC(O)COc1cccc2nsnc12` (stereo unspecified) gave a log1/activity of 4.52.

`O=C(NCCNCC(O)COc1ccccc1O)C1CCCO1` (stereo unspecified) was tested, and the log1/activity was 5.16.

`CC(C)C(=O)NCCNCC(O)COc1nsnc1N1CCOCC1` (stereo unspecified) showed a log1/activity of 6.34.

Compound `NC(=O)c1ccccc1OCC(O)CNCCNC(=O)c1cccs1` (stereo unspecified) has a log1/activity of 4.78.

Work on `O=C(NCCNCC(O)COc1ccccc1)c1cccs1` (stereo unspecified) yielded a log1/activity of 5.92.

Compound `Cc1cccc(OCC(O)CNCCNC(=O)c2ccco2)c1` (stereo unspecified) has a log1/activity of 4.9.

`CC(=O)Nc1ccc(OCC(O)CNC(C)C)cc1` (stereo unspecified) [PRACTOLOL] gave a log1/activity of 5.72.

In the case of `CC(C)NCC(O)COc1cccc2ccccc12` (stereo unspecified) [PROPRANOLOL], the log1/activity was 6.11.
